Reference: patent US20210284639A1, “TYROSINE AMIDE DERIVATIVES AS RHO- KINASE INHIBITORS” (CHIESI FARMACEUTICI S.p.A., priority 2018, published 2021)

What was measured:
ROCK 2 (Rho kinase 2) = ROCK 2 (Rho kinase 2) (Homo sapiens, UniProt O75116); test: In vitro inhibitory activity assay (ADP-Glo), Rho kinase 2; format: biochemical; details: Ki by Cheng-Prusoff from IC50; 10 μM ATP, 25° C.
Experimental: (§1) In Vitro Inhibitory Activity Assay Description
(§2) The effectiveness of compounds of the present invention to inhibit Rho kinase activity can be determined in a 10 μl assay containing 40 mM Tris pH7.5, 20 mM MgCl2 0.1 mg/ml BSA, 50 μM DTT and 2.5 μM peptide substrate (Myelin Basic Protein) using an ADP-Glo kit (Promega). Compounds were dissolved in DMSO such that the final concentration of DMSO was 1% in the assay. All reactions/incubations are performed at 25° C. Compound (2 μl) and either Rho kinase 1 or 2 (4 μl) were mixed and incubated for 30 mins. Reactions were initiated by addition of ATP (4 μl) such that the final concentration of ATP in the assay was 10 μM. After a 1 hour incubation 10 μl of ADP-Glo Reagent was added and after a further 45 minute incubation 20 μl of Kinase Detection Buffer was added and the mixture incubated for a further 30 minutes. The luminescent signal was measured on a luminometer. […] Compounds were tested in dose-response format and the inhibition of kinase activity was calculated at each concentration of compound. To determine the IC50 (concentration of compound required to inhibit 50% of the enzyme activity) data were fit to a plot of % inhibition vs Log10 compound concentration using a sigmoidal fit with a variable slope and fixing the maximum to 100% and the minimum to 0%. To determine the Ki values the Cheng-Prusoff equation was utilized (Ki=IC50/(1+[S]/Km).

ROCK 1 (Rho kinase 1) = ROCK 1 (Rho kinase 1) (Homo sapiens, UniProt Q13464); test: In vitro inhibitory activity assay (ADP-Glo), Rho kinase 1; format: biochemical; details: Ki by Cheng-Prusoff from IC50; 10 μM ATP, 25° C.
Sequence of ROCK 1 (Rho kinase 1) (Q13464 whole entry): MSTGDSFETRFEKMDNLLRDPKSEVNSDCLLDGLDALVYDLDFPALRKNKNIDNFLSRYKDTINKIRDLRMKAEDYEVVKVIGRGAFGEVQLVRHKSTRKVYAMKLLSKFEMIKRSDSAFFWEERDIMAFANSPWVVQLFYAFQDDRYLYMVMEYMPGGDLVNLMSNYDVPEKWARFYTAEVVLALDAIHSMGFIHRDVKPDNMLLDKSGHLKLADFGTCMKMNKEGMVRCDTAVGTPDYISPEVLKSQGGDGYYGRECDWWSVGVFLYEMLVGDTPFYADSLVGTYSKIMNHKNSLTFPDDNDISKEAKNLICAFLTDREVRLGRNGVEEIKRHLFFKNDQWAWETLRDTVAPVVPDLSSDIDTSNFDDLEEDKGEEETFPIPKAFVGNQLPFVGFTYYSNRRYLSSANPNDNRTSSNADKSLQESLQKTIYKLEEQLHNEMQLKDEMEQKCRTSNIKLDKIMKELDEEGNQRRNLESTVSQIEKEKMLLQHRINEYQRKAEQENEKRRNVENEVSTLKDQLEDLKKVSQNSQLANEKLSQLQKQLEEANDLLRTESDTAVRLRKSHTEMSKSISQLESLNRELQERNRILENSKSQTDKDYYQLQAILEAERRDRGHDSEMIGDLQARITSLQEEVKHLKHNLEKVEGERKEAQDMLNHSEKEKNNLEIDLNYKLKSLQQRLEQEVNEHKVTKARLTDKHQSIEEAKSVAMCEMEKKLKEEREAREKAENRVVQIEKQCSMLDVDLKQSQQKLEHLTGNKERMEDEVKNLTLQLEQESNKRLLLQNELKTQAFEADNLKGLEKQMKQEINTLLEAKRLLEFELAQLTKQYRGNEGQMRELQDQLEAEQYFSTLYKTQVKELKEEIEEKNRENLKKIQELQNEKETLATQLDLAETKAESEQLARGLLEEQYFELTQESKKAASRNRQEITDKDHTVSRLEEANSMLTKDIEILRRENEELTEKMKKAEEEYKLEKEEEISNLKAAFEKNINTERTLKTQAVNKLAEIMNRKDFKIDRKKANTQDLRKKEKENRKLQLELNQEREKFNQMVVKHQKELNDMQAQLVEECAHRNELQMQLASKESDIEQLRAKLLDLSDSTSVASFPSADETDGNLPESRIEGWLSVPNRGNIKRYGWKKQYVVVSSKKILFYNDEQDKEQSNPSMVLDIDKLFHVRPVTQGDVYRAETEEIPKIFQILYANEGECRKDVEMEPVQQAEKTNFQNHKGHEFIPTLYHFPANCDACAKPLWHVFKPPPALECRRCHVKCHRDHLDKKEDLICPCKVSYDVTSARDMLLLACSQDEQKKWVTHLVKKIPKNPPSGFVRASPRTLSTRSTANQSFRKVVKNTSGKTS
Experimental: as §1, §2

Sequence of ROCK 2 (Rho kinase 2) (O75116 whole entry): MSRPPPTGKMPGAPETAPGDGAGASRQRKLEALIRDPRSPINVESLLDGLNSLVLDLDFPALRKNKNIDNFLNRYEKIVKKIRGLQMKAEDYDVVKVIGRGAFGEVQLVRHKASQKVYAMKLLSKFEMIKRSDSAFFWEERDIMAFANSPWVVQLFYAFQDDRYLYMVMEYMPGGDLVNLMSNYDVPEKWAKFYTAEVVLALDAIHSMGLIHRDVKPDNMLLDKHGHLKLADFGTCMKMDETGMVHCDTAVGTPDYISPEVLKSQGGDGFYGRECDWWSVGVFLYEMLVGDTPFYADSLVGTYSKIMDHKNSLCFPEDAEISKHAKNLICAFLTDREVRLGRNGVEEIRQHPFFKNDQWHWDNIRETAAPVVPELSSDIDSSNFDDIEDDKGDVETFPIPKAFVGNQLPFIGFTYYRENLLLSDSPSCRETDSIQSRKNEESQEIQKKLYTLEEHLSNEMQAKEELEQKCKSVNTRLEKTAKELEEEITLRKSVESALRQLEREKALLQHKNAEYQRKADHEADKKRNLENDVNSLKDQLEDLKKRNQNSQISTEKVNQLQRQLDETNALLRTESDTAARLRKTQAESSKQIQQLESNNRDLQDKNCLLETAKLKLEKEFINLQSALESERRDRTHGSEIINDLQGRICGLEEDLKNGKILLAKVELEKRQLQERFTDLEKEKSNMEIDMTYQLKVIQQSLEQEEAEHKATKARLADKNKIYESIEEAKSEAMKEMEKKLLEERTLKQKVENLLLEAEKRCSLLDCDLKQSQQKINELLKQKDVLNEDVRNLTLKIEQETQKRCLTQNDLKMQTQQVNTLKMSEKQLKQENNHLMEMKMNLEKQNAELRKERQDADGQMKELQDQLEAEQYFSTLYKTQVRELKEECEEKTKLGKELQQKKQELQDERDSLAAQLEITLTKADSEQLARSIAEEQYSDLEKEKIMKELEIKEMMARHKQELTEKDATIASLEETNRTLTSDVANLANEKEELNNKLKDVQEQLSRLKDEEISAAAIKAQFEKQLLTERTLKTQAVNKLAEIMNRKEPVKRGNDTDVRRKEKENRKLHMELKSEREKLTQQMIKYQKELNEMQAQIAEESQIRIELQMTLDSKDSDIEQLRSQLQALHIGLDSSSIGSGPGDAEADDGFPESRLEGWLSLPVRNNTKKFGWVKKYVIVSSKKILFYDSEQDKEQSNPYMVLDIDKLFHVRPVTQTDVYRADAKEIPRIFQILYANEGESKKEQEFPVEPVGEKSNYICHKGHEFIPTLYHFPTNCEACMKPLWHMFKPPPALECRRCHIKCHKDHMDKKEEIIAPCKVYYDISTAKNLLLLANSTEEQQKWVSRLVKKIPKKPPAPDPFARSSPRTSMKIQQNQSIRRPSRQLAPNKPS

SMILES | Ki (ROCK 2 (Rho kinase 2)) | Ki (ROCK 1 (Rho kinase 1))
Cc1c[nH]c2nccc(Oc3ccc(C[C@H](N)C(=O)NC4CCCN(C)C4)cc3F)c12 (single isomer, unassigned) [Example 18] | 3 to 30 nM | 3 to 30 nM
Cc1c[nH]c2nccc(Oc3ccc(C[C@H](N)C(=O)NC4CCN(CC5CC5)CC4)cc3F)c12 [Example 16, (S)-2-Amino-N-(1-(cyclopropylmethyl)piperidin-4-yl)-3-(3-fluoro-4-((3-methyl-1H-pyrrolo[2,3-b]pyridin-4-yl)oxy)phenyl)propanamide] | < 3 nM | < 3 nM
Cc1c[nH]c2nccc(Oc3ccc(C[C@H](N)C(=O)N4CCc5cncnc5C4)cc3F)c12 [Example 23, (S)-2-Amino-1-(5,8-dihydropyrido[3,4-d]pyrimidin-7(6H)-yl)-3-(3-fluoro-4-((3-methyl-1H-pyrrolo[2,3-b]pyridin-4-yl)oxy)phenyl)propan-1-one] | < 3 nM | < 3 nM
Cc1c[nH]c2nccc(Oc3ccc(C[C@H](N)C(=O)N4CCc5cnccc5C4)cc3F)c12 [Example 25, (S)-2-Amino-1-(3,4-dihydro-2,6-naphthyridin-2(1H)-yl)-3-(3-fluoro-4-((3-methyl-1H-pyrrolo[2,3-b]pyridin-4-yl)oxy)phenyl)propan-1-one] | < 3 nM | < 3 nM
CNC(=O)C1(NC(=O)[C@@H](N)Cc2ccc(Oc3ccnc4[nH]cc(C)c34)c(F)c2)CCCC1 [Example 28, (S)-1-(2-amino-3-(3-fluoro-4-((3-methyl-1H-pyrrolo[2,3-b]pyridin-4-yl)oxy)phenyl)propanamido)-N-methylcyclopentane-1-carboxamide] | < 3 nM | < 3 nM
Cc1c[nH]c2nccc(Oc3ccc(C[C@H](N)C(=O)N4CCC(O)(CO)CC4)cc3F)c12 [Example 9, (S)-2-Amino-3-(3-fluoro-4-((3-methyl-1H-pyrrolo[2,3-b]pyridin-4-yl)oxy)phenyl)-1-(4-hydroxy-4-(hydroxymethyl)piperidin-1-yl)propan-1-one] | < 3 nM | < 3 nM
Cc1c[nH]c2nccc(Oc3ccc(C[C@H](N)C(=O)N4CCc5ncsc5C4)cc3F)c12 [Example 24, (S)-2-Amino-1-(6,7-dihydrothiazolo[5,4-c]pyridin-5(4H)-yl)-3-(3-fluoro-4-((3-methyl-1H-pyrrolo[2,3-b]pyridin-4-yl)oxy)phenyl)propan-1-one] | < 3 nM | < 3 nM
COCCN1CCC(NC(=O)[C@@H](N)Cc2ccc(Oc3ccnc4[nH]cc(C)c34)c(F)c2)CC1 [Example 14, (S)-2-Amino-3-(3-fluoro-4-((3-methyl-1H-pyrrolo[2,3-b]pyridin-4-yl)oxy)phenyl)-N-(1-(2-methoxyethyl)piperidin-4-yl)propanamide] | < 3 nM | < 3 nM
CCN1CCC(NC(=O)[C@@H](N)Cc2ccc(Oc3ccnc4[nH]cc(C)c34)c(F)c2)CC1 [Example 7, (S)-2-Amino-N-(1-ethylpiperidin-4-yl)-3-(3-fluoro-4-((3-methyl-1H-pyrrolo[2,3-b]pyridin-4-yl)oxy)phenyl)propanamide] | < 3 nM | < 3 nM
CNC(=O)[C@@H](N)Cc1ccc(Oc2ccnc3[nH]cc(C)c23)c(F)c1 [Example 46, (S)-2-amino-3-(3-fluoro-4-((3-methyl-1H-pyrrolo[2,3-b]pyridin-4-yl)oxy)phenyl)-N-methylpropanamide] | < 3 nM | < 3 nM
Cc1c[nH]c2ncnc(Oc3ccc(C[C@H](N)C(=O)N4CCC(S(=O)(=O)c5ccc(F)cc5)CC4)cc3F)c12 [Example 37, (S)-2-Amino-3-(3-fluoro-4-((5-methyl-7H-pyrrolo[2,3-d]pyrimidin-4-yl)oxy)phenyl)-1-(4-((4-fluorophenyl)sulfonyl)piperidin-1-yl)propan-1-one] | < 3 nM | < 3 nM
Cc1c[nH]c2nccc(Oc3ccc(C[C@H](N)C(=O)NC4CCCN(C)C4)cc3F)c12 (single isomer, unassigned) [Example 17] | 3 to 30 nM | 3 to 30 nM
Cc1c[nH]c2nccc(Oc3ccc(C[C@H](N)C(=O)NC4CCN(C)CC4(C)C)cc3F)c12 (single isomer, unassigned) [Example 8b] | < 3 nM | < 3 nM

Continued, values first:

Ki (ROCK 2 (Rho kinase 2)) | Ki (ROCK 1 (Rho kinase 1)) | SMILES
< 3 nM | < 3 nM | Cc1c[nH]c2ncnc(Oc3ccc(C[C@H](N)C(=O)NC4(CO)CCCCC4)cc3F)c12 [Example 35, (S)-2-Amino-3-(3-fluoro-4-((5-methyl-7H-pyrrolo[2,3-d]pyrimidin-4-yl)oxy)phenyl)-N-(1-(hydroxymethyl)cyclohexyl)propanamide]
< 3 nM | 3 to 30 nM | Cc1c[nH]c2nccc(Oc3ccc(C[C@H](N)C(=O)N(C)C)cc3F)c12 [Example 45, (S)-2-amino-3-(3-fluoro-4-((3-methyl-1H-pyrrolo[2,3-b]pyridin-4-yl)oxy)phenyl)-N,N-dimethylpropanamide]
< 3 nM | < 3 nM | Cc1cccc(S(=O)(=O)C2CCN(C(=O)[C@@H](N)Cc3ccc(Oc4ccnc5[nH]cc(C)c45)c(F)c3)CC2)c1 [Example 31, (S)-2-Amino-3-(3-fluoro-4-((3-methyl-1H-pyrrolo[2,3-b]pyridin-4-yl)oxy)phenyl)-1-(4-(m-tolylsulfonyl)piperidin-1-yl)propan-1-one]
< 3 nM | < 3 nM | Cc1c[nH]c2nccc(Oc3ccc(C[C@H](N)C(N)=O)cc3F)c12 [Example 47, (S)-2-amino-3-(3-fluoro-4-((3-methyl-1H-pyrrolo[2,3-b]pyridin-4-yl)oxy)phenyl)propanamide]
< 3 nM | < 3 nM | Cc1c[nH]c2nccc(Oc3ccc(C[C@H](N)C(=O)N4CCc5ncccc5C4)cc3F)c12 [Example 26, (S)-2-amino-1-(7,8-dihydro-1,6-naphthyridin-6(5H)-yl)-3-(3-fluoro-4-((3-methyl-1H-pyrrolo[2,3-b]pyridin-4-yl)oxy)phenyl)propan-1-one]
< 3 nM | < 3 nM | Cc1c[nH]c2nccc(Oc3ccc(C[C@H](N)C(=O)N4C[C@@H]5C[C@H]4CN5C4CC4)cc3F)c12 [Example 13, (S)-2-Amino-1-((1S,4S)-5-cyclopropyl-2,5-diazabicyclo[2.2.1]heptan-2-yl)-3-(3-fluoro-4-((3-methyl-1H-pyrrolo[2,3-b]pyridin-4-yl)oxy)phenyl)propan-1-one]
< 3 nM | < 3 nM | Cc1c[nH]c2nccc(Oc3ccc(C[C@H](N)C(=O)N4CCC(NC5CC5)CC4)cc3F)c12 [Example 19, (S)-2-Amino-1-(4-(cyclopropylamino)piperidin-1-yl)-3-(3-fluoro-4-((3-methyl-1H-pyrrolo[2,3-b]pyridin-4-yl)oxy)phenyl)propan-1-one]
< 3 nM | 3 to 30 nM | Cc1c[nH]c2ncnc(Oc3ccc(C[C@H](N)C(=O)NC4(C(N)=O)CCCCC4)cc3F)c12 [Example 32, (S)-1-(2-amino-3-(3-fluoro-4-((5-methyl-7H-pyrrolo[2,3-d]pyrimidin-4-yl)oxy)phenyl)propanamido)cyclohexanecarboxamide]
< 3 nM | 3 to 30 nM | Cc1c[nH]c2ncnc(Oc3ccc(C[C@H](N)C(=O)NC4(CO)CCOCC4)cc3F)c12 [Example 36, (S)-2-Amino-3-(3-fluoro-4-((5-methyl-7H-pyrrolo[2,3-d]pyrimidin-4-yl)oxy)phenyl)-N-(4-(hydroxymethyl)tetrahydro-2H-pyran-4-yl)propanamide]
< 3 nM | < 3 nM | CN1CCC(NC(=O)[C@@H](N)Cc2ccc(Oc3ccnc4[nH]cc(C5CC5)c34)c(F)c2)CC1 [Example 40, (S)-2-Amino-3-(4-((3-cyclopropyl-1H-pyrrolo[2,3-b]pyridin-4-yl)oxy)-3-fluorophenyl)-N-(1-methylpiperidin-4-yl)propanamide]
< 3 nM | < 3 nM | Cc1c[nH]c2nccc(Oc3ccc(C[C@H](N)C(=O)NC4CCN(C5COC5)CC4)cc3F)c12 [Example 3, (S)-2-Amino-3-(3-fluoro-4-((3-methyl-1H-pyrrolo[2,3-b]pyridin-4-yl)oxy)phenyl)-N-(1-(oxetan-3-yl)piperidin-4-yl)propanamide]
< 3 nM | < 3 nM | Cc1c[nH]c2nccc(Oc3ccc(C[C@H](N)C(=O)NC4CCN(CCCF)CC4)cc3F)c12 [Example 15, (S)-2-Amino-3-(3-fluoro-4-((3-methyl-1H-pyrrolo[2,3-b]pyridin-4-yl)oxy)phenyl)-N-(1-(3-fluoropropyl)piperidin-4-yl)propanamide]
< 3 nM | < 3 nM | Cc1c[nH]c2ncnc(Oc3ccc(C[C@H](N)C(=O)NC4CCN(C5CC5)CC4)cc3F)c12 [Example 39, (S)-2-Amino-N-(1-cyclopropylpiperidin-4-yl)-3-(3-fluoro-4-((5-methyl-7H-pyrrolo[2,3-d]pyrimidin-4-yl)oxy)phenyl)propanamide]
< 3 nM | < 3 nM | Cc1c[nH]c2nccc(Oc3ccc(C[C@H](N)C(=O)NC4(CO)CCC4)cc3F)c12 [Example 30, (S)-2-amino-3-(3-fluoro-4-((3-methyl-1H-pyrrolo[2,3-b]pyridin-4-yl)oxy)phenyl)-N-(1-(hydroxymethyl)cyclobutyl)propanamide]
